Data taken from PMC13164762, “Development and Validation of an LC-MS/MS Method for the Quantitation of JNJ-64619178 (JNJ) in Mouse Plasma: Characterization of In Vitro and In Vivo Pharmacokinetic Properties” (Molecules, 2026).
Where “and” joins values, the source holds several entries; their conditions need not be identical. Equal entries are not always repeated. Where two headings read alike, the source gives them in different places.

What was measured:
[1] = input for fu,inc equation; source not given; cited from earlier work
[2] = Microsomal metabolic stability, human liver microsomes; assay type: in vitro ADME
Description: (§1) Mouse and human liver microsomes were used for the metabolic stability assay. In brief, the incubation mixture (500 µL) consisted of phosphate-buffered saline (PBS) (100 mM, pH 7.4), microsomal protein (0.5 mg mL^−1), magnesium chloride (10 mM), and NADPH (2 mM). Following pre-incubation of the above reaction mixture for 10 min at 37 °C, the reaction was initiated by spiking JNJ at a final 1 µg mL^−1 concentration. Alongside the test compound, testosterone at a final concentration of 1 µg mL^−1 was incubated as a positive control. All experiments were performed in triplicate. At sampling times of 0, 5, 10, 20, 30, 45, and 60 min, 40 µL samples were collected and quenched with 300 µL ice-chilled acetonitrile supplemented with 10 µL IS. Simultaneously, samples from NADPH-free negative controls were also withdrawn and processed accordingly to confirm any non-enzymatic degradation. Finally, after 1 h of collection, samples were vortexed at 1000 rpm for 1 min and centrifuged at 2200× g for 15 min, and the collected supernatant was analyzed using LC-MS/MS.
(§2) The natural logarithm of the area ratio versus time was plotted, and the slope of the curve was calculated by a linear regression equation to generate the elimination rate constant, k (min^−1). CLint was calculated by the following equation:(2) CLint=0.693/t1/2×Volume of incubation mixture (mL)/microsomal protein (mg)
(§3) CLH,int of JNJ in the mouse and human liver was then estimated from CLint using the scaling factor.(3) CLH,int=CLint×Microsomal protein (mg)/Liver (g)×Liver weight (g)/Body weight (kg)
(§4) Here, 45 and 32 mg of microsomal protein per g of liver weight were applied, and 60 and 25 g of liver weight per kg body weight were used for mouse and human tissue, respectively.

[3] = Rapid equilibrium dialysis (RED) brain protein binding; assay type: in vitro ADME, mouse; details: for fraction unbound at 5 h: mouse, brain homogenate
Description: A rapid equilibrium dialysis (RED) protein binding assay was performed to determine the protein binding of JNJ in plasma and brain matrix. The RED plate was obtained from Thermo Fisher Scientific (Frederick, MD, USA) for the experiment. An aliquot (200 µL) of JNJ spiked plasma/brain homogenate was poured into the donor chamber, and 400 µL dialysis buffer-PBS containing 100 mM sodium phosphate and 150 mM sodium chloride was added into the receiver compartment of each RED insert in triplicate. The plate was kept in incubation for 5 h on the orbital shaker at 37 °C. Following incubation, 50 µL plasma and buffer aliquots were collected separately, and an equal volume of opposite matrix was added. Collected samples were processed as previously described in Section 4.6 and analyzed using LC-MS/MS. Degree of protein binding (%) was calculated by the following equation:(6) Protein bound (%)=Concentrationdonor cell−Concentrationreceiver cell/Concentrationdonor cell×100

[4] = system: HD-MB cell line; details: method and reference not given; cited from earlier work
[5] = Microsomal metabolic stability, mouse liver microsomes; assay type: in vitro ADME
Description: as §1, §2, §3, §4
Then, CLH,int was corrected for microsomal binding (CLH,int/fu,inc) and CLH,predict was predicted using the well-stirred model by the following equation:(4) CLH,predict=Q × fu,plasma×CLH,int/fu,inc /Q + fu,plasma×CLH,int/fu,inc
Here, Q is the hepatic blood flow (90 mL min^−1 kg^−1 in mouse), fu,plasma is the fraction unbound in plasma, fu,inc is the fraction unbound in microsomal incubation and CLH,int is included from Equation (3); fu,inc was calculated by adding logP of JNJ (2.3) to the following equation:(5) fu,inc=1/1 + 10^0.53 logP − 1.42

Nc1nc2cc(CC[C@H]3C[C@@H](n4ccc5c(N)ncnc54)[C@H](O)[C@@H]3O)ccc2cc1Br [JNJ, JNJ-64619178]
logP [1]: 2.3
microsomal intrinsic clearance (CLint) ([2]; HLM, mean ± SD, n = 3): 0.01 ± 0.001 mL min^−1 mg^−1 protein
hepatic intrinsic clearance (CLH,int) ([2]; HLM, scaled from CLint (32 mg protein/g liver, 25 g liver/kg)): 7 ± 0.6 mL min^−1 kg^−1 body weight and 7 ± 0.5 mL min^−1 kg^−1 body weight
half-life at 1 µg mL^−1 ([2]; human, liver microsomes, pH 7.4, HLM, mean ± SD, n = 3, read-out: Half-life (t1/2)): 2.47 ± 0.167 h
remaining at 1 h, 1 µg mL^−1 ([2]; human, liver microsomes, pH 7.4, HLMs, NADPH, 1 µg mL^−1, n = 3, read-out: percent remaining concentration after 1 h incubation): 72 ± 2%
Brain Protein Binding (%) ([3]; mouse brain homogenate, RED, 5 h, 37 °C, n = 3): 94 ± 1%
fraction unbound at 5 h ([3]; mouse brain homogenate, RED, 5 h, 37 °C, n = 3, read-out: Brain Protein Binding (%)): < 0.06
fraction unbound at 5 h ([3]; mouse brain, read-out: fraction unbound in brain (fu,brain)): 0.057
IC50 [4]: 1700 nM
In Vitro IC50 [4]: 0.821 µg/mL
microsomal intrinsic clearance (CLint) ([5]; MLM, mean ± SD, n = 3): 0.02 ± 0.01 mL min^−1 mg^−1 protein
hepatic intrinsic clearance (CLH,int) ([5]; MLM, scaled from CLint (45 mg protein/g liver, 60 g liver/kg)): 41 ± 19 mL min^−1 kg^−1 body weight
predicted in vivo hepatic clearance (CLH,predict) ([5]; mice, in vitro scaling, well-stirred model): 1.6 mL min^−1 kg^−1 body weight and 1.6 ± 0.7 mL min^−1 kg^−1 body weight
half-life at 1 µg mL^−1 ([5]; mouse, liver microsomes, pH 7.4, MLM, mean ± SD, n = 3, read-out: Half-life (t1/2)): 1.68 ± 0.65 h
remaining at 1 h, 1 µg mL^−1 ([5]; mouse, liver microsomes, pH 7.4, MLMs, NADPH, 1 µg mL^−1, n = 3, read-out: percent remaining concentration after 1 h incubation): 60 ± 12%
